Each structure is given as a SMILES string.

The results in this text go back to patent US12441726B2, “Compounds and uses thereof” (Foghorn Therapeutics Inc., priority 2020, dated 2025).

Sequence of BRG-1 (P51532 whole entry): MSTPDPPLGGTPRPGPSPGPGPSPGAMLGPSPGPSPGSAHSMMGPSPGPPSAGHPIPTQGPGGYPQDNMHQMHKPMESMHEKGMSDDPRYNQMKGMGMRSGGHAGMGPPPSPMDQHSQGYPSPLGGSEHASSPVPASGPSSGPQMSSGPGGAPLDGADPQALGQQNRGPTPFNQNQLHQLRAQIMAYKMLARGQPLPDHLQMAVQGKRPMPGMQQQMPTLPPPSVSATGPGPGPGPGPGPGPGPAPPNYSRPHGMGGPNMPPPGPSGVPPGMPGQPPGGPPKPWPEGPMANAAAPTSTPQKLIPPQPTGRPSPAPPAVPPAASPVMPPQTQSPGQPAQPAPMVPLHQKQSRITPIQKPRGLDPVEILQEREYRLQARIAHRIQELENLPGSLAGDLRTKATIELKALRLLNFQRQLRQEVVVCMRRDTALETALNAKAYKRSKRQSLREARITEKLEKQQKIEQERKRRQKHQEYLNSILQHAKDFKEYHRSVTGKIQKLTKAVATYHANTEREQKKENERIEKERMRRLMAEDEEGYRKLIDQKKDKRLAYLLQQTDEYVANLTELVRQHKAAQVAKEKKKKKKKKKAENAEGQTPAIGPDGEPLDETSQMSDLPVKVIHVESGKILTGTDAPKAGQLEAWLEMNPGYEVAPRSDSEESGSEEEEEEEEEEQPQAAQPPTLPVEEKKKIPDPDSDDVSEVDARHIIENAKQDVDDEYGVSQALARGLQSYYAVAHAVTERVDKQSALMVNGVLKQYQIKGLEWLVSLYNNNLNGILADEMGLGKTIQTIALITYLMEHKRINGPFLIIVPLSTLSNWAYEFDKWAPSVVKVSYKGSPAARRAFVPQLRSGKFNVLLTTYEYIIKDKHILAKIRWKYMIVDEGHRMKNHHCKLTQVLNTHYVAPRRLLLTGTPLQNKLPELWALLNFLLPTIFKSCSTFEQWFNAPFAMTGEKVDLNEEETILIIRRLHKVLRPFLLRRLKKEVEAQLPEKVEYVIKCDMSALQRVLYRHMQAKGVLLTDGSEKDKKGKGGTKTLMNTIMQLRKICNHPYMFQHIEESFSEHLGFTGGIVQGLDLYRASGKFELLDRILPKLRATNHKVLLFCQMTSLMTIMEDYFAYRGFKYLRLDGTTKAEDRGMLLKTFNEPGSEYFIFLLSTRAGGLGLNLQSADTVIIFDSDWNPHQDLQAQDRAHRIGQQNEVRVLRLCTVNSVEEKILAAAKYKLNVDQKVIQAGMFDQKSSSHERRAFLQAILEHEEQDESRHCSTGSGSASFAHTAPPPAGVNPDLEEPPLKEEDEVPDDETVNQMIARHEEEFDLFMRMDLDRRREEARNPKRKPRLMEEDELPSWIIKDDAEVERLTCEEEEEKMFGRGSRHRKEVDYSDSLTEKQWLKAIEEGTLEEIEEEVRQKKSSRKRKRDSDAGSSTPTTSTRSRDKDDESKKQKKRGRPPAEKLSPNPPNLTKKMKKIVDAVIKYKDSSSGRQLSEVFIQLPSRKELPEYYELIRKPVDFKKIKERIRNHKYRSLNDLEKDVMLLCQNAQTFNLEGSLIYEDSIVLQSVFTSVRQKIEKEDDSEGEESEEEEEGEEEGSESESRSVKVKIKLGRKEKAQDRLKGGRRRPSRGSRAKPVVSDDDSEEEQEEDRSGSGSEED

The target of the first assay is BRM (Homo sapiens, UniProt P51531). The assay can be described thus: ATPase catalytic activity assay (ADP-Glo), BRM. Particulars: 30 nM BRM, 400 μM ATP.
Sequence of BRM (P51531 whole entry): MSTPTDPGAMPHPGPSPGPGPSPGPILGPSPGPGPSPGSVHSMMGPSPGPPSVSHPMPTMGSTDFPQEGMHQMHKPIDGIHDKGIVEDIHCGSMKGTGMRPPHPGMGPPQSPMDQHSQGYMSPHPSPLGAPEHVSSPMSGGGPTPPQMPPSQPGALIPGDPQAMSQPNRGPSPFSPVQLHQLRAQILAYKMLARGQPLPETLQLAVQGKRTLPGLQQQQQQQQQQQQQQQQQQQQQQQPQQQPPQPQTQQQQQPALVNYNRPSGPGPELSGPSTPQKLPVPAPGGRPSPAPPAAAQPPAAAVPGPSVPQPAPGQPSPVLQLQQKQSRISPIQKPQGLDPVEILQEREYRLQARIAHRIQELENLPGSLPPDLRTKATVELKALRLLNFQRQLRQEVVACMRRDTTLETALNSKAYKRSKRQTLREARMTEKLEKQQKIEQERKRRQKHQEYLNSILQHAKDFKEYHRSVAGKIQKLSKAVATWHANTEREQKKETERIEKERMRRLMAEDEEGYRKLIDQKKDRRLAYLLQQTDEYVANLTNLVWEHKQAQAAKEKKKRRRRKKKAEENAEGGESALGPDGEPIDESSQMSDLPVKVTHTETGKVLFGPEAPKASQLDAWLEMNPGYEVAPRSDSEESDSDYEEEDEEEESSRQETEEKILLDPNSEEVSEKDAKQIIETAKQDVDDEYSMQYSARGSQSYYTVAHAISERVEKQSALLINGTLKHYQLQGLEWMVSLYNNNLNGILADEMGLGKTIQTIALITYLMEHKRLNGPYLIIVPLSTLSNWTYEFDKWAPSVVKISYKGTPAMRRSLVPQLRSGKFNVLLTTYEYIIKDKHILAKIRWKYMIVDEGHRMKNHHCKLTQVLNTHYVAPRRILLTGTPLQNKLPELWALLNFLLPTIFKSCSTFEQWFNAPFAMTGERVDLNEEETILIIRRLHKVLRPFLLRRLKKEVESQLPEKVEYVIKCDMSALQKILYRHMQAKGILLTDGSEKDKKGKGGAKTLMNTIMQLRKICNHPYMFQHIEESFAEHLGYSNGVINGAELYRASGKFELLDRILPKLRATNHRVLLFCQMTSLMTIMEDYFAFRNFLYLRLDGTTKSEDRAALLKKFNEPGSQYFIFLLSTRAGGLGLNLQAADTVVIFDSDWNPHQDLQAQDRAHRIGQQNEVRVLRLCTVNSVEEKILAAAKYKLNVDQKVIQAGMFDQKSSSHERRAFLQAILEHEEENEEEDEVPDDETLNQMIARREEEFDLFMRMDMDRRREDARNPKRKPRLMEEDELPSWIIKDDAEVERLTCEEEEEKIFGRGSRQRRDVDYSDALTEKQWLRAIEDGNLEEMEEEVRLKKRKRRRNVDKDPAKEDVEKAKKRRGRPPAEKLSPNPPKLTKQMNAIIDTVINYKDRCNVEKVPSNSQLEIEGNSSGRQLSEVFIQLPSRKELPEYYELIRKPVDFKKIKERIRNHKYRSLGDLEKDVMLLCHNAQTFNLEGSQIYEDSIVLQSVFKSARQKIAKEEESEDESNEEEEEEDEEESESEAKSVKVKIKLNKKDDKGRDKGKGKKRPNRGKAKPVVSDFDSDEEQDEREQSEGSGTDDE
Consider `C[C@@]1(F)COCc2ccc(C(=O)NCc3cc4nc(-c5ccnc(N6CCC6)n5)ccc4cn3)cc21` [Compound 429], for which the “BRM Max % Inhibition” value is 99%.
On the same count and under the same terms, for `CN(C)c1cccc(-c2ccc3cnc(CNC(=O)c4cnc5c(c4)[C@](F)(C(F)F)COC5)cc3n2)n1` [Compound 224] the value was 101%; for `Cn1cc(-c2ccc3cnc(CNC(=O)c4ccc5c(c4)[C@](C)(C#N)COC5)cc3n2)c(F)n1` [Compound 364], 90%.
Same read-out and setting: for `C[C@@]1(C#N)COCc2ccc(C(=O)NCc3cc4cc(-c5cccc(C6(O)CC6)n5)ccc4cn3)cc21` [Compound 262] the value was 102%.
Still for that read-out and setting: the same measure for `C[C@@]1(C#N)COCc2ccc(C(=O)NCc3cc4nc(-c5cn(C6COC6)nc5C5CC5)ccc4cn3)cc21` [Compound 186]: 97%; for `C[C@@]1(C#N)COCc2ccc(C(=O)NCc3cc([C@H]4C[C@@H](c5ccccc5)C4)ccn3)cc21` [Compound 19]: 97%; for `C[C@@]1(C#N)COCc2ccc(C(=O)NCc3cc4nc(-c5ccc6ccc(=O)n(C7CC7)c6n5)ccc4cn3)cc21` [Compound 165]: 97%.
For the compound `C[C@@]1(F)COCc2ccc(C(=O)NCc3cc4nc(-c5cccc(C6(O)CCOCC6)n5)ccc4cn3)cc21` [Compound 302], the “BRM Max % Inhibition” value amounted to 93%.
On the same count and under the same terms, for `C[C@@]1(C#N)COCc2ccc(C(=O)NCc3cc(N4CCN(c5ccccc5)CC4)ccn3)cc21` [Compound 42] the value was 97%; for `C[C@@]1(C#N)COCc2ccc(C(=O)NCc3cc(OCc4ccc(C#N)cc4)ccn3)cc21` [Compound 64], 87%; for `C[C@@]1(C#N)COCc2ccc(C(=O)NCc3cc4nc(-c5cccnc5)ccc4cn3)cc21` [Compound 114], 86%.
On the same count and under the same terms, the same measure for `C[C@@]1(O)COCc2ccc(C(=O)NCc3cc4nc(-c5ccccc5)sc4cn3)cc21` [Compound 119]: 81%.
The same measure, in the same setting: the same measure for `O=C(NCc1cc2nc(-c3ccccc3)ccc2cn1)c1ccc2c(c1)[C@@](F)(C(F)F)COC2` [Compound 525]: 97%; for `COc1cncc(-c2ccc3cnc(CNC(=O)c4ccc5c(c4)[C@](C)(C#N)COC5)cc3n2)n1` [Compound 423]: 98%.
Consider `C[C@@]1(C#N)COCc2ccc(C(=O)NCc3cc4nc(-c5cc(F)c(=O)n(C(F)F)c5)ccc4cn3)cc21` [Compound 449], for which the “BRM Max % Inhibition” value is recorded as 92%.
Still for that read-out and setting: for `C[C@@]1(F)COCc2ccc(C(=O)NCc3cc4nc(-c5ccnc(C6CC6)n5)sc4cn3)cc21` [Compound 199] the value was 85%; for `Cn1ccc2nc(-c3ccc4cnc(CNC(=O)c5ccc6c(c5)[C@](C)(C#N)COC6)cc4n3)sc2c1=O` [Compound 443], 96%; for `C[C@@]1(C#N)COCc2ccc(C(=O)NCc3cc([C@H]4C[C@@H]4c4ccccc4)ccn3)cc21` [Compound 7], 81%.

Still in this assay, the particulars now being: BRM ATPase: IC50 (uM), 30 nM BRM, 400 μM ATP.
As usually defined, the IC50 is the concentration that inhibits the measured activity by half. `C[C@@]1(F)COCc2ccc(C(=O)NCc3cc4nc(-c5ccnc(N6CCC6)n5)ccc4cn3)cc21` [Compound 429]: the IC50 was below 0.1 µM.
Same read-out and setting: the same measure for `CN(C)c1cccc(-c2ccc3cnc(CNC(=O)c4cnc5c(c4)[C@](F)(C(F)F)COC5)cc3n2)n1` [Compound 224]: below 0.1 µM; for `Cn1cc(-c2ccc3cnc(CNC(=O)c4ccc5c(c4)[C@](C)(C#N)COC5)cc3n2)c(F)n1` [Compound 364]: 0.1 to 0.5 µM; for `C[C@@]1(C#N)COCc2ccc(C(=O)NCc3cc4cc(-c5cccc(C6(O)CC6)n5)ccc4cn3)cc21` [Compound 262]: below 0.1 µM.
Still for that read-out and setting: for `C[C@@]1(C#N)COCc2ccc(C(=O)NCc3cc4nc(-c5cn(C6COC6)nc5C5CC5)ccc4cn3)cc21` [Compound 186] the value was below 0.1 µM; for `C[C@@]1(C#N)COCc2ccc(C(=O)NCc3cc([C@H]4C[C@@H](c5ccccc5)C4)ccn3)cc21` [Compound 19], 0.1 to 0.5 µM; for `C[C@@]1(C#N)COCc2ccc(C(=O)NCc3cc4nc(-c5ccc6ccc(=O)n(C7CC7)c6n5)ccc4cn3)cc21` [Compound 165], below 0.1 µM.
On the same count and under the same terms, the same measure for `C[C@@]1(F)COCc2ccc(C(=O)NCc3cc4nc(-c5cccc(C6(O)CCOCC6)n5)ccc4cn3)cc21` [Compound 302]: 0.1 to 0.5 µM.
As for `C[C@@]1(C#N)COCc2ccc(C(=O)NCc3cc(N4CCN(c5ccccc5)CC4)ccn3)cc21` [Compound 42], the half-maximal inhibitory concentration (IC50) is 0.1 to 0.5 µM.
Same read-out and setting: for `C[C@@]1(C#N)COCc2ccc(C(=O)NCc3cc(OCc4ccc(C#N)cc4)ccn3)cc21` [Compound 64] the value was 0.1 to 0.5 µM; for `C[C@@]1(C#N)COCc2ccc(C(=O)NCc3cc4nc(-c5cccnc5)ccc4cn3)cc21` [Compound 114], 0.5 to 1 µM.
Still for that read-out and setting: for `C[C@@]1(O)COCc2ccc(C(=O)NCc3cc4nc(-c5ccccc5)sc4cn3)cc21` [Compound 119] the value was above 1 µM; for `O=C(NCc1cc2nc(-c3ccccc3)ccc2cn1)c1ccc2c(c1)[C@@](F)(C(F)F)COC2` [Compound 525], 0.1 to 0.5 µM; for `COc1cncc(-c2ccc3cnc(CNC(=O)c4ccc5c(c4)[C@](C)(C#N)COC5)cc3n2)n1` [Compound 423], below 0.1 µM.
`C[C@@]1(C#N)COCc2ccc(C(=O)NCc3cc4nc(-c5cc(F)c(=O)n(C(F)F)c5)ccc4cn3)cc21` [Compound 449] showed an IC50 of 0.1 to 0.5 µM.
Still for that read-out and setting: for `C[C@@]1(F)COCc2ccc(C(=O)NCc3cc4nc(-c5ccnc(C6CC6)n5)sc4cn3)cc21` [Compound 199] the value was 0.1 to 0.5 µM; for `Cn1ccc2nc(-c3ccc4cnc(CNC(=O)c5ccc6c(c5)[C@](C)(C#N)COC6)cc4n3)sc2c1=O` [Compound 443], 0.1 to 0.5 µM; for `C[C@@]1(C#N)COCc2ccc(C(=O)NCc3cc([C@H]4C[C@@H]4c4ccccc4)ccn3)cc21` [Compound 7], above 1 µM.

The next assay addresses BRG-1 (Homo sapiens, UniProt P51532). In words: ATPase catalytic activity assay (ADP-Glo), BRG-1.
Settings: not given
(ADP-Glo first removes unused ATP, then detects ADP through luciferase.)
Take `C[C@@]1(F)COCc2ccc(C(=O)NCc3cc4nc(-c5ccnc(N6CCC6)n5)ccc4cn3)cc21` [Compound 429]: the concentration for half-maximal inhibition (IC50) fell in the range of 100 to 500 nM.
The same measure, in the same setting: the same measure for `CN(C)c1cccc(-c2ccc3cnc(CNC(=O)c4cnc5c(c4)[C@](F)(C(F)F)COC5)cc3n2)n1` [Compound 224]: below 100 nM.
The same measure, in the same setting: for `Cn1cc(-c2ccc3cnc(CNC(=O)c4ccc5c(c4)[C@](C)(C#N)COC5)cc3n2)c(F)n1` [Compound 364] the value was 500 to 1000 nM; for `C[C@@]1(C#N)COCc2ccc(C(=O)NCc3cc4cc(-c5cccc(C6(O)CC6)n5)ccc4cn3)cc21` [Compound 262], below 100 nM; for `C[C@@]1(C#N)COCc2ccc(C(=O)NCc3cc4nc(-c5cn(C6COC6)nc5C5CC5)ccc4cn3)cc21` [Compound 186], 500 to 1000 nM.
In turn, `C[C@@]1(C#N)COCc2ccc(C(=O)NCc3cc([C@H]4C[C@@H](c5ccccc5)C4)ccn3)cc21` [Compound 19] registered an IC50 of 500 to 1000 nM.
In turn, `C[C@@]1(C#N)COCc2ccc(C(=O)NCc3cc4nc(-c5ccc6ccc(=O)n(C7CC7)c6n5)ccc4cn3)cc21` [Compound 165] showed an IC50 of 100 to 500 nM.
The same measure, in the same setting: the same measure for `C[C@@]1(F)COCc2ccc(C(=O)NCc3cc4nc(-c5cccc(C6(O)CCOCC6)n5)ccc4cn3)cc21` [Compound 302]: 500 to 1000 nM.
Same read-out and setting: the same measure for `C[C@@]1(C#N)COCc2ccc(C(=O)NCc3cc(N4CCN(c5ccccc5)CC4)ccn3)cc21` [Compound 42]: 500 to 1000 nM; for `C[C@@]1(C#N)COCc2ccc(C(=O)NCc3cc(OCc4ccc(C#N)cc4)ccn3)cc21` [Compound 64]: above 1000 nM.
Still for that read-out and setting: the same measure for `C[C@@]1(C#N)COCc2ccc(C(=O)NCc3cc4nc(-c5cccnc5)ccc4cn3)cc21` [Compound 114]: above 1000 nM; for `C[C@@]1(O)COCc2ccc(C(=O)NCc3cc4nc(-c5ccccc5)sc4cn3)cc21` [Compound 119]: above 1000 nM; for `O=C(NCc1cc2nc(-c3ccccc3)ccc2cn1)c1ccc2c(c1)[C@@](F)(C(F)F)COC2` [Compound 525]: 500 to 1000 nM.
For `COc1cncc(-c2ccc3cnc(CNC(=O)c4ccc5c(c4)[C@](C)(C#N)COC5)cc3n2)n1` [Compound 423], the concentration for half-maximal inhibition (IC50) was 100 to 500 nM.
Still for that read-out and setting: for `C[C@@]1(C#N)COCc2ccc(C(=O)NCc3cc4nc(-c5cc(F)c(=O)n(C(F)F)c5)ccc4cn3)cc21` [Compound 449] the value was above 1000 nM; for `C[C@@]1(F)COCc2ccc(C(=O)NCc3cc4nc(-c5ccnc(C6CC6)n5)sc4cn3)cc21` [Compound 199], above 1000 nM; for `Cn1ccc2nc(-c3ccc4cnc(CNC(=O)c5ccc6c(c5)[C@](C)(C#N)COC6)cc4n3)sc2c1=O` [Compound 443], 100 to 500 nM.
Same read-out and setting: the same measure for `C[C@@]1(C#N)COCc2ccc(C(=O)NCc3cc([C@H]4C[C@@H]4c4ccccc4)ccn3)cc21` [Compound 7]: above 1000 nM.

The assay is the same for the next values; noted with them: 1 h, read-out: BRG1 Max % Inhibition, ADP-Glo, 30 nM BRG-1, 400 μM ATP.
On to `C[C@@]1(F)COCc2ccc(C(=O)NCc3cc4nc(-c5ccnc(N6CCC6)n5)ccc4cn3)cc21` [Compound 429], for which the Emax was 93%.
`CN(C)c1cccc(-c2ccc3cnc(CNC(=O)c4cnc5c(c4)[C@](F)(C(F)F)COC5)cc3n2)n1` [Compound 224]: the Emax is 100%.
For `Cn1cc(-c2ccc3cnc(CNC(=O)c4ccc5c(c4)[C@](C)(C#N)COC5)cc3n2)c(F)n1` [Compound 364], the Emax was determined as 62%.
The same measure, in the same setting: the same measure for `C[C@@]1(C#N)COCc2ccc(C(=O)NCc3cc4cc(-c5cccc(C6(O)CC6)n5)ccc4cn3)cc21` [Compound 262]: 99%.
Same read-out and setting: for `C[C@@]1(C#N)COCc2ccc(C(=O)NCc3cc4nc(-c5cn(C6COC6)nc5C5CC5)ccc4cn3)cc21` [Compound 186] the value was 66%; for `C[C@@]1(C#N)COCc2ccc(C(=O)NCc3cc([C@H]4C[C@@H](c5ccccc5)C4)ccn3)cc21` [Compound 19], 89%; for `C[C@@]1(C#N)COCc2ccc(C(=O)NCc3cc4nc(-c5ccc6ccc(=O)n(C7CC7)c6n5)ccc4cn3)cc21` [Compound 165], 80%.
Turning to `C[C@@]1(F)COCc2ccc(C(=O)NCc3cc4nc(-c5cccc(C6(O)CCOCC6)n5)ccc4cn3)cc21` [Compound 302], the Emax came to 58%.
On to `C[C@@]1(C#N)COCc2ccc(C(=O)NCc3cc(N4CCN(c5ccccc5)CC4)ccn3)cc21` [Compound 42], for which the Emax was determined as 84%.
Still for that read-out and setting: the same measure for `C[C@@]1(C#N)COCc2ccc(C(=O)NCc3cc(OCc4ccc(C#N)cc4)ccn3)cc21` [Compound 64]: 36%; for `C[C@@]1(C#N)COCc2ccc(C(=O)NCc3cc4nc(-c5cccnc5)ccc4cn3)cc21` [Compound 114]: 42%; for `C[C@@]1(O)COCc2ccc(C(=O)NCc3cc4nc(-c5ccccc5)sc4cn3)cc21` [Compound 119]: 18%.
Same read-out and setting: for `O=C(NCc1cc2nc(-c3ccccc3)ccc2cn1)c1ccc2c(c1)[C@@](F)(C(F)F)COC2` [Compound 525] the value was 69%.
On the same count and under the same terms, for `COc1cncc(-c2ccc3cnc(CNC(=O)c4ccc5c(c4)[C@](C)(C#N)COC5)cc3n2)n1` [Compound 423] the value was 89%; for `C[C@@]1(C#N)COCc2ccc(C(=O)NCc3cc4nc(-c5cc(F)c(=O)n(C(F)F)c5)ccc4cn3)cc21` [Compound 449], 50%.
As for `C[C@@]1(F)COCc2ccc(C(=O)NCc3cc4nc(-c5ccnc(C6CC6)n5)sc4cn3)cc21` [Compound 199], the Emax was determined as 14%.
Still for that read-out and setting: for `Cn1ccc2nc(-c3ccc4cnc(CNC(=O)c5ccc6c(c5)[C@](C)(C#N)COC6)cc4n3)sc2c1=O` [Compound 443] the value was 82%; for `C[C@@]1(C#N)COCc2ccc(C(=O)NCc3cc([C@H]4C[C@@H]4c4ccccc4)ccn3)cc21` [Compound 7], 12%.
